Source: patent US20230381774A1, “MICROFLUDIC LAB-ON-CHIP DEVICE, MATRIX, SMALL MOLECULES AND THREE-DIMENSIONAL SPHEROIDS FOR CELL REPROGRAMMING” (The Regents of the University of California, priority 2022, published 2023)

System: fibroblasts
Test: Cell morphology, actin and focal adhesion immunostaining
Format: cell-based, mouse
Conditions: 24 hours
Procedure: For immunostaining, cells were fixed with 4% paraformaldehyde (Electron Microscopy Sciences), permeabilized with 0.5% Triton-X-100 (Sigma), and blocked with 5% donkey serum (Jackson Immunoresearch) in phosphate buffered saline (PBS). For actin-cytoskeleton staining, samples were incubated with fluorescein isothiocyanate-conjugated phalloidin (Invitrogen) for 1 hour. Primary antibodies were incubated for 1 hour at room temperature or overnight at 4° C., followed by 1-hour incubation with Alexa 488 and/or Alexa 546-labeled secondary antibodies (Molecular Probes). Nuclei were stained with 4,6-diamino-2-phenylindole (DAPI) (Invitrogen).

For Cc1ccc2c(c1)C(=O)C1(O)CCN(c3ccccc3)C1=N2 (stereo not drawn) [blebbistatin], the actin fibers was “fewer intact actin fibers”, the paxillin punctate was “fewer positive paxillin punctate” and the “cell morphology and spreading” value (10 μM) was “induced dramatic changes in cell morphology and reduced cell spreading”.
